From patent US11001562B2, “Near-infrared fluorescent nerve contrast agents and methods of use thereof” (Beth Israel Deaconess Medical Center, priority 2013, dated 2021)

Columns and labels:
[1] = system: pig sciatic nerve tissue cross sections; test: Ex vivo nerve-specific fluorophore screening on nerve tissue sections; conditions: 100 μM fluorophore, 20 min incubation, pig sciatic nerve sections
Experimental: Phase contrast image (top) and fluorescence image (bottom) of nerve tissue sections incubated with 100 μM of test fluorophores are shown. Nerve-specific fluorescence intensity was determined using staining of pig sciatic nerve cut in cross section. Nerve tissue sections were incubated in 30% FBS solutions without (negative control, autofluorescence only) and with each fluorophore. As a positive control, previously reported nerve-specific BMB was used. Shown are phase contrast image (top) and fluorescence image (bottom) of nerve tissue sections incubated with 100 μM of each fluorophore. The control autofluorescence images were taken with equivalent exposure time and normalization. Arrowheads indicate fluorescence signals in nerve bundles. Ad=adipose tissue. Scale bars=200 μm. The SBR of each nerve relative to the neighboring adipose tissue was quantified and labeled as—, SBR<1; +, SBR=1−2; and ++, SBR >2.
Sciatic nerves from female Yorkshire pigs were harvested, fixed in 2% paraformaldehyde (PFA), and flash frozen in optimal cutting temperature (OCT) compound using liquid nitrogen. Nerve tissues were cut in cross section using a cryostat at […] thickness onto positively charge glass slides. Tissue sections were washed once with phosphate buffered saline (PBS) for 2 min to remove residual OCT. The tissue was then fixed to the slide with 2% PFA for 15 min, followed by washing with PBS (3×5 min). A formulation was previously developed for intravenous (IV) administration and was used in the current study to incubate the fluorophores with the nerve tissue (25). All fluorophores were mixed from the 100 mM stock solution into the IV formulation at 100 µM and incubated with the washed nerve tissue sections at room temperature for 20 min. Additional IV formulation not containing fluorophore was mixed and used to wash each nerve section twice (5 min per wash) following incubation with the formulated fluorophore. The nerve section was then washed an additional 2 times with PBS (5 min per each), after which coverslips were mounted using Fluoromount-G (Southern Biotech, Birmingham, Ala.).
NIR fluorescence microscopy for ex vivo nerve tissue slides was performed on a Nikon Eclipse TE300 microscope system as previously described (12, 19, 25). The microscope was equipped with a 100 W mercury light source, NIR-compatible optics, and a NIR-compatible 10× Plan Fluor objective lens and a 100× Plan Apo oil immersion objective lens (Nikon, Melville, N.Y.). Images were acquired on an Orca-AG (Hamamatsu, Bridgewater, N.J.). Image acquisition and analysis was performed using IPLab software (Scanalytics, Fairfax, Va.). A custom filter set (Chroma Technology Corporation, Brattleboro, Vt.) composed of a 650±22 nm excitation filter, a 675 nm dichroic mirror, and an 710±25 nm emission filter were used to detect Oxazine derivatives and Rhodamine 800 signals in the nerve tissue slides. For BMB, a mercury light source was passed through a 360±25 nm BP excitation filter, a 400 nm LP beam splitter, and a 550±50 nm emission filter.

[2] = Optical property measurements (absorbance and fluorescence spectra); type: physicochemical; conditions: 100% FBS with 50 mM HEPES, pH 7.4, 37° C.
Experimental: Absorbance and fluorescence spectra were obtained at a concentration of […] in 100% FBS supplemented with 50 mM HEPES, pH 7.4. B) Optical properties of Oxazine 4 were measured in PBS (pH 7.4), FBS (pH 7.4), MeOH, and DMSO.
Oxazine derivatives were obtained from Fisher Scientific Inc. (Pittsburgh, Pa.) or Sigma-Aldrich (Saint Louis, Mo.), and BMB was synthesized as described previously (25). Optical measurements were performed at 37° C. in phosphate-buffered saline (PBS), pH 7.4 or 100% fetal bovine serum (FBS) buffered with 50 mM HEPES, pH 7.4. Absorbance and fluorescence emission spectra were measured using fiber optic HR2000 absorbance (200-1100 nm) and USB2000FL fluorescence (350-1000 nm) spectrometers (Ocean Optics, Dunedin, Fla.). NIR excitation was provided by a 532 nm green laser pointer (Opcom Inc., Xiamen, China) set to 5 mW and coupled through a […] core diameter, NA 0.22 fiber (Fiberguide Industries, Stirling, N.J.). In silico calculation of the partition coefficient (log D at pH 7.4) was calculated using Marvin and J Chem calculator plugins (ChemAxon, Budapest, Hungary). Chemical similarities were calculated by Instant J Chem 6.04 using “Chemical Hashed Fingerprint” with the Normalized Euclidean dissimilarity screening configuration (ChemAxon).
All optical measurements were performed at 37° C. in phosphate-buffered saline (PBS), pH 7.4, 100% fetal bovine serum (FBS) buffered with 50 mM HEPES, pH 7.4, methanol (MeOH), or dimethyl sulfoxide (DMSO). Absorbance and fluorescence emission spectra of the series of NIR fluorophores were measured using fiber optic HR2000 absorbance (200-1100 nm) and USB2000FL fluorescence (350-1000 nm) spectrometers (Ocean Optics, Dunedin, Fla.). Excitation light was provided by a 532 nm green laser pointer (Opcom Inc., Xiamen, China) set to 5 mW and coupled through a 300 μm core diameter, NA 0.22 fiber (Fiberguide Industries, Stirling, N.J.). In silico calculation of the partition coefficient (log D at pH 7.4) was calculated using Marvin and J Chem calculator plugins (ChemAxon, Budapest, Hungary).

Abs (peak absorbance) [2]: 616 nm
Em (peak emission) [2]: 635 nm
λ (extinction coefficient) [2]: 143,000 M^−1cm^−1
Structure (SMILES): CC/N=c1/cc2oc3cc(NCC)c(C)cc3nc-2cc1C [Oxazine 4]
nerve-specific fluorescence signal in cross-sectioned nerve [1]: strong fluorescence signal throughout the cross-sectioned nerve
